In ChEMBL document CHEMBL4196033, “Potent hydrazone derivatives targeting esophageal cancer cells” (Eur J Med Chem, 2018):
Activity calls are given as the source filed them. The rule behind the calls is not given here.

How the values were obtained:
EC9706 [1] = test: Induction of apoptosis in human EC9706 cells assessed as live cells at 2 uM after 48 hrs by Annexin V-FITC/propidium iodide staining based flow cytometry (reference value: 85.5 to 96%); assay type: functional
EC9706 [2] = test: Induction of apoptosis in human EC9706 cells assessed as live cells at 4 uM after 48 hrs in presence of caspase inhibitor Z-VAD-FMK by Annexin V-FITC/propidium iodide staining based flow cytometry (reference value: 95.7%); assay type: functional
ECa-109 cell line [3] = test: Upregulation of p27 protein expression in human EC109 cells at 2 uM after 24 to 48 hrs by Western blot analysis relative to control; assay type: functional
ECa-109 cell line [4] = test: Induction of apoptosis in human EC109 cells assessed as increase in Bax protein expression after 48 hrs by Western blot analysis; assay type: functional, cell-based
Mus musculus [5] = test: Acute toxicity in C57BL/6 mouse assessed as change in body weight at 2 g/kg, ig measured for 2 weeks; assay type: organism-based; details: in vivo, po, 2000 mg/kg, 336 h
EC9706 [6] = test: Induction of apoptosis in human EC9706 cells assessed as late apoptotic cells at 4 uM after 48 hrs by Annexin V-FITC/propidium iodide staining based flow cytometry (reference value: 1.29 to 1.99%); assay type: functional
EC9706 [7] = test: Induction of apoptosis in human EC9706 cells assessed as live cells at 8 uM after 48 hrs by Annexin V-FITC/propidium iodide staining based flow cytometry (reference value: 85.5 to 96%); assay type: functional
ECa-109 cell line [8] = test: Induction of apoptosis in human EC109 cells assessed as early apoptotic cells at 4 uM after 48 hrs by Annexin V-FITC/propidium iodide staining based flow cytometry (reference value: 0.43 to 1.15%); assay type: functional
ECa-109 cell line [9] = test: Induction of apoptosis in human EC109 cells assessed as increase in p53 protein expression after 48 hrs by Western blot analysis; assay type: functional, cell-based
EC9706 [10] = test: Induction of ROS generation in human EC9706 cells at 2 uM after 24 hrs by DCFH-DA staining based flow cytometry relative to control; assay type: functional
ECa-109 cell line [11] = test: Induction of apoptosis in human EC109 cells assessed as increase in cleaved caspase-8 protein expression after 48 hrs by Western blot analysis; assay type: functional, cell-based
EC9706 [12] = test: Induction of apoptosis in human EC9706 cells assessed as necrotic cells at 2 uM after 48 hrs by Annexin V-FITC/propidium iodide staining based flow cytometry (reference value: 1.1 to 1.31%); assay type: functional
GES1 [13] = test: Antiproliferative activity against human GES-1 cells after 72 hrs by MTT assay; assay type: cell-based; details: GES1, 72 h
Mus musculus [14] = test: Acute toxicity in C57BL/6 mouse assessed as histopathological changes in heart at 2 g/kg, ig measured for 2 weeks by hematoxylin and eosin staining based microscopic method; assay type: organism-based; details: in vivo, po, 2000 mg/kg, 336 h
ECa-109 cell line [15] = test: Induction of apoptosis in human EC109 cells assessed as live cells at 4 uM after 48 hrs in presence of caspase inhibitor Z-VAD-FMK by Annexin V-FITC/propidium iodide staining based flow cytometry (reference value: 96.2%); assay type: functional
EC9706 [16] = test: Cell cycle arrest in human EC9706 cells assessed as decrease in G2/M phase population at 2 uM after 24 hrs by propidium iodide staining based flow cytometry relative to control; assay type: functional
ECa-109 cell line [17] = test: Induction of morphological changes in human EC109 cells assessed as apoptotic body formation after 48 hrs by Hoechst 33342 staining based fluorescence microscopic method; assay type: functional, cell-based
EC9706 [18] = test: Induction of apoptosis in human EC9706 cells assessed as late apoptotic cells at 8 uM after 48 hrs in presence of caspase inhibitor Z-VAD-FMK by Annexin V-FITC/propidium iodide staining based flow cytometry (reference value: 1.27%); assay type: functional
EC9706 [19] = test: Induction of ROS generation in human EC9706 cells at 4 uM after 24 hrs by DCFH-DA staining based flow cytometry relative to control; assay type: functional
GES1 [20] = test: Antiproliferative activity against human GES-1 cells after 48 hrs by MTT assay; assay type: cell-based; details: GES1, 48 h
ECa-109 cell line [21] = test: Effect on Prxs-2 protein expression in human EC109 cells at 2 to 8 uM after 48 hrs by Western blot analysis; assay type: functional, cell-based
ECa-109 cell line [22] = test: Induction of apoptosis in human EC109 cells assessed as early apoptotic cells at 8 uM after 48 hrs in presence of caspase inhibitor Z-VAD-FMK by Annexin V-FITC/propidium iodide staining based flow cytometry (reference value: 0.52%); assay type: functional
ECa-109 cell line [23] = test: Induction of ROS generation in human EC109 cells at 4 uM after 24 hrs by DCFH-DA staining based flow cytometry relative to control; assay type: functional
EC9706 [24] = test: Induction of apoptosis in human EC9706 cells assessed as necrotic cells at 8 uM after 48 hrs by Annexin V-FITC/propidium iodide staining based flow cytometry (reference value: 1.1 to 1.31%); assay type: functional
EC9706 [25] = test: Induction of apoptosis in human EC9706 cells assessed as late apoptotic cells at 8 uM after 48 hrs by Annexin V-FITC/propidium iodide staining based flow cytometry (reference value: 1.29 to 1.99%); assay type: functional
ECa-109 cell line [26] = test: Antiproliferative activity against human EC109 cells after 24 hrs by MTT assay; assay type: functional, cell-based; details: ECa-109, 24 h
ECa-109 cell line [27] = test: Induction of apoptosis in human EC109 cells assessed as early apoptotic cells at 2 uM after 48 hrs by Annexin V-FITC/propidium iodide staining based flow cytometry (reference value: 0.43 to 1.15%); assay type: functional
EC9706 [28] = test: Induction of apoptosis in human EC9706 cells assessed as live cells at 4 uM after 48 hrs by Annexin V-FITC/propidium iodide staining based flow cytometry (reference value: 85.5 to 96%); assay type: functional
ECa-109 cell line [29] = test: Induction of apoptosis in human EC109 cells assessed as late apoptotic cells at 4 uM after 48 hrs by Annexin V-FITC/propidium iodide staining based flow cytometry (reference value: 0.2 to 1.74%); assay type: functional
Mus musculus [30] = test: Acute toxicity in C57BL/6 mouse assessed as change in physical phenotype at 2 g/kg, ig measured for 2 weeks; assay type: organism-based; details: in vivo, po, 2000 mg/kg, 336 h
EC9706 [31] = test: Effect on Prxs-3 protein expression in human EC9706 cells at 2 to 8 uM after 48 hrs by Western blot analysis; assay type: functional, cell-based
EC9706 [32] = test: Induction of morphological changes in human EC9706 cells assessed as chromatin condensation after 48 hrs by Hoechst 33342 staining based fluorescence microscopic method; assay type: functional, cell-based
EC9706 [33] = test: Cell cycle arrest in human EC9706 cells assessed as decrease in G2/M phase population at 4 uM after 24 hrs by propidium iodide staining based flow cytometry relative to control; assay type: functional
SMMC-7721 = test: Antiproliferative activity against human SMMC7721 cells after 72 hrs by MTT assay; assay type: functional, cell-based; details: SMMC-7721, 72 h
EC9706 [34] = test: Induction of apoptosis in human EC9706 cells assessed as increase in cleaved PARP protein expression after 48 hrs by Western blot analysis; assay type: functional, cell-based
EC9706 [35] = test: Induction of apoptosis in human EC9706 cells assessed as decrease in Bid protein expression at 2 to 8 uM after 48 hrs by Western blot analysis; assay type: functional, cell-based
EC9706 [36] = test: Cell cycle arrest in human EC9706 cells assessed as decrease in G2/M phase population at 8 uM after 24 hrs by propidium iodide staining based flow cytometry relative to control; assay type: functional

COc1ccc(/C=N/NC(=O)c2cccc(S(=O)(=O)N3CCOCC3)c2)c(O)c1
Activity (EC9706 [1]): 82.8%
Activity (EC9706 [2]): 42.1%
fold change (FC) (ECa-109 cell line [3]): 1.2
Activity (ECa-109 cell line [4]): Dose-dependent effect
Activity (Mus musculus [5]): Non-Toxic
Activity (EC9706 [6]): 18.2 - 21.6%
Activity (EC9706 [7]): 29.9 - 61.1%
Activity (ECa-109 cell line [8]): 17.8 - 22.4%
Activity (ECa-109 cell line [9]): Dose-dependent effect
fold change (FC) (EC9706 [10]): 1.16
Activity (ECa-109 cell line [11]): Dose-dependent effect
Activity (EC9706 [12]): 10.1%
IC50 (GES1 [13]): 14.4 µM
Activity (Mus musculus [14]): Non-Toxic
Activity (ECa-109 cell line [15]): 49%
fold change (FC) (EC9706 [16]): 0.28
Activity (ECa-109 cell line [17]): Dose-dependent effect
Activity (EC9706 [18]): 25%
fold change (FC) (EC9706 [19]): 1.45
IC50 (GES1 [20]): > 80 µM
Activity (ECa-109 cell line [21]): Active
Activity (ECa-109 cell line [22]): 14.1%
fold change (FC) (ECa-109 cell line [23]): 2.05
Activity (EC9706 [24]): 10.1 - 10.2%
Activity (EC9706 [25]): 25 - 33.1%
IC50 (ECa-109 cell line [26]): > 20 µM
Activity (ECa-109 cell line [27]): 13.3%
Activity (EC9706 [28]): 34.2 - 61.2%
Activity (ECa-109 cell line [29]): 17.4 - 31.1%
Activity (Mus musculus [30]): Non-Toxic
Activity (EC9706 [31]): Active
Activity (EC9706 [32]): Dose-dependent effect
fold change (FC) (EC9706 [33]): 0.3
IC50 (SMMC-7721): 3.95 µM
Activity (EC9706 [34]): Dose-dependent effect
Activity (EC9706 [35]): Active
fold change (FC) (EC9706 [36]): 0.26
